What was measured:
Format in all cases: biochemical
Conditions in all cases: 1 μM inhibitor concentration
[1] = biological target: S6K1 (Homo sapiens (Human), UniProt P23443); test: S6K1 kinase selectivity assay
Method: S6K1/P70 S6K (5-20 mU diluted in 20 mM MOPS pH 7.5, 1 mM EDTA, 0.01% Brij35, 5% glycerol, 0.1% b-mercaptoethanol, 1 mg/ml BSA) is assayed against substrate peptide ([…]) in a final volume of 25.5 μl containing 8 mM MOPS pH 7.0, 0.2 mM EDTA, 0.1 mM substrate peptide, 10 mM magnesium acetate and 0.02 mM [33P-g-ATP] (50-1000 cpm/pmole) and incubated for 30 min at room temperature. Assays are stopped by addition of 5 μl of 0.5 M (3%) orthophosphoric acid and then harvested onto P81 Unifilter plates with a wash buffer of 50 mM orthophosphoric acid.

[2] = biological target: IGF-1R (Homo sapiens (Human), UniProt P08069); test: IGF-1R kinase selectivity assay
Sequence of IGF-1R (P08069 31-1367, species assumed): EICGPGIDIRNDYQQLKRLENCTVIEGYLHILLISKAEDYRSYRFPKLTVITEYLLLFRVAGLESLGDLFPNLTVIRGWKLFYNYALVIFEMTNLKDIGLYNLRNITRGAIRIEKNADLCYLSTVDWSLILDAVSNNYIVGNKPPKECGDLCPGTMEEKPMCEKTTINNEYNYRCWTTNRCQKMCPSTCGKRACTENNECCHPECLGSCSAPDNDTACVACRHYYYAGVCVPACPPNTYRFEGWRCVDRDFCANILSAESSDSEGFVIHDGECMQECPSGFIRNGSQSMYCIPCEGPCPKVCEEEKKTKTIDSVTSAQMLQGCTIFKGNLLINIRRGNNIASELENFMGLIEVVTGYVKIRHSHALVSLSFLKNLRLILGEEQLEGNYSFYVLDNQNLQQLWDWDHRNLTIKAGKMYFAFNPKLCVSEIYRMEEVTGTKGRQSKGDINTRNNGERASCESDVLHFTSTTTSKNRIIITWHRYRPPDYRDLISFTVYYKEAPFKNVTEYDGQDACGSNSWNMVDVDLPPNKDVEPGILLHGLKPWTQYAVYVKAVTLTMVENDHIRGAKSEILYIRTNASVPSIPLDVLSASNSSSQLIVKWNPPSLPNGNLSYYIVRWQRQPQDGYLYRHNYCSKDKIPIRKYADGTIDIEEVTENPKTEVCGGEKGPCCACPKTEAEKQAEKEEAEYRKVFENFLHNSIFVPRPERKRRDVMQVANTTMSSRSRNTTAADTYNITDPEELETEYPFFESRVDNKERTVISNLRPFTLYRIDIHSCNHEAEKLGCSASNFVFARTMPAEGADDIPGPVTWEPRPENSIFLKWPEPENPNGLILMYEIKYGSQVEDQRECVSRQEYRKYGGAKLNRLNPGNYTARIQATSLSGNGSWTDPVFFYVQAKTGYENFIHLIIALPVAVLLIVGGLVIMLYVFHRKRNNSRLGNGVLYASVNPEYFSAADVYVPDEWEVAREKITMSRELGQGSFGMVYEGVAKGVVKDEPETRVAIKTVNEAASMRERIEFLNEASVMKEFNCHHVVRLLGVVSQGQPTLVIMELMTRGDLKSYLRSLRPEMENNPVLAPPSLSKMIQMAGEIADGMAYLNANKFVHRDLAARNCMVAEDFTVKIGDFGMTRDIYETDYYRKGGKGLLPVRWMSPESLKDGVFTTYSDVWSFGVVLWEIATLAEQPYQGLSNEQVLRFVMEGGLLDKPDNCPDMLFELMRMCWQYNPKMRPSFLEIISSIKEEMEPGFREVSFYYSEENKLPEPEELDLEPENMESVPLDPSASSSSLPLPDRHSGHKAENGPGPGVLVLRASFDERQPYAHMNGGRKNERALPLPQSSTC
Method: (§1) IGF-1R (5-20 mU diluted in 50 mM Tris pH 7.5, 0.1 mM EGTA, 1 mg/ml BSA) is assayed against a substrate peptide ([…]) in a final volume of 25.5 μl containing 50 mM Tris pH 7.5, 300 µM substrate peptide, 10 mM magnesium acetate and 0.005 mM [33P-g-ATP] (50-1000 cpm/pmole) and incubated for 30 min at room temperature. Assays are stopped by addition of 5 μl of 0.5 M (3%) orthophosphoric acid and then harvested onto P81 Unifilter plates with a wash buffer of 50 mM orthophosphoric acid.

[3] = test system: Lck; test: Lck kinase selectivity assay
Method: LCK (5-20 mU diluted in 20 mM MOPS pH 7.5, 1 mM EDTA, 0.01% Brij35, 5% glycerol, 0.1% b-mercaptoethanol, 1 mg/ml BSA) is assayed against Cdc2 peptide ([…]) in a final volume of 25.5 μl containing 50 mM Tris pH 7.5, 0.1 mM EGTA, 0.1 mM Na3Vo4, Cdc2 peptide (0.25 mM), 10 mM magnesium acetate and 0.05 mM [33P-g-ATP](500-1000 cpm/pmole) and incubated for 15 min at room temperature Assays are stopped by addition of 5 μl of 0.5 M (3%) orthophosphoric acid and then harvested onto P81 Unifilter plates with a wash buffer of 50 mM orthophosphoric acid.

[4] = biological target: CK1δ (Homo sapiens (Human), UniProt P48730); test: CK1 kinase selectivity assay
Sequence of CK1δ (P48730 whole entry): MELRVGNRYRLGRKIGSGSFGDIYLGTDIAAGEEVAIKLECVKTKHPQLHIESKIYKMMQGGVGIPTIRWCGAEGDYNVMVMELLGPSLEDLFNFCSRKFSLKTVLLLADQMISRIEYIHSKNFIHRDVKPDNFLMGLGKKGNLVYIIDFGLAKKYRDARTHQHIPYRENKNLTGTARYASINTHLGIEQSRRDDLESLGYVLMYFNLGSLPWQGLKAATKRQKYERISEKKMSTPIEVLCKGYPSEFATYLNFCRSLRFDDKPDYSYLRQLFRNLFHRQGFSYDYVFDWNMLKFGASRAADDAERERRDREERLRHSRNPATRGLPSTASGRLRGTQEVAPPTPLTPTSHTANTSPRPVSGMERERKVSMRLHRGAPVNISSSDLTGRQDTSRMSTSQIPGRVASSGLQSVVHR
Method: CK1 (5-20 mU diluted in 20 mM Hepes pH7.5, 0.15 M NaCl, 0.1 mM EGTA, 0.1% Triton X-100, 5 mM DTT, 50% glycerol) is assayed against CKI peptide ([…]) in a final volume of 25.5 μl containing 20 mM Hepes pH 7.5, 0.15 M NaCl, 0.1 mM EDTA, 5 mM DTT, 0.1% Triton-X 100, CKI peptide (0.5 mM), 10 mM magnesium acetate and 0.02 mM [33P-g-ATP](500-1000 cpm/pmole) and incubated for 30 min at room temperature. Assays are stopped by addition of 5 μl of 0.5 M (3%) orthophosphoric acid and then harvested onto P81 Unifilter plates with a wash buffer of 50 mM orthophosphoric acid.

[5] = biological target: TBK1 (Homo sapiens (Human), UniProt Q9UHD2); test: TBK1 kinase selectivity assay
Sequence of TBK1 (Q9UHD2 whole entry, species assumed): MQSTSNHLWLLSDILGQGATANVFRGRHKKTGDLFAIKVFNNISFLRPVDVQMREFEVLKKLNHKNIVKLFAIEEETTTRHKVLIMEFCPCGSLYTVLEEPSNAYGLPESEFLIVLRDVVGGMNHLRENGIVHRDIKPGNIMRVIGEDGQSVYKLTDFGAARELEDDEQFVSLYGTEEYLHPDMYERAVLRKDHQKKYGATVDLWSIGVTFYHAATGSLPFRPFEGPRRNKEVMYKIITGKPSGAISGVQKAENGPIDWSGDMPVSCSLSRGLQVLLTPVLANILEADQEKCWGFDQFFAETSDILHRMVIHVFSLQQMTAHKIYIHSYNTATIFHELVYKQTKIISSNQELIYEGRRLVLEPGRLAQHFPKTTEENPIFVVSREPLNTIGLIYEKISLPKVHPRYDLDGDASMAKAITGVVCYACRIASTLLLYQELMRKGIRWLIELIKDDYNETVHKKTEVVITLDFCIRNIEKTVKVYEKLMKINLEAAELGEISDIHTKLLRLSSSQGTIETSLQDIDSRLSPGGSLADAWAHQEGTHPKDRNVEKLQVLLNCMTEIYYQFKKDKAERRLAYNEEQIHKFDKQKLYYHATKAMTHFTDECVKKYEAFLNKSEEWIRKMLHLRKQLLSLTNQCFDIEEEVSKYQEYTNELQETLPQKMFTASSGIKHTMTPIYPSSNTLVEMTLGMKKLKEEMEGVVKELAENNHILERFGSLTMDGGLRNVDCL
Method: as §1, with “TBK1 (DU12569)” for “IGF-1R”, “μM” for “µM”, “0.05” for “0.005”

[6] = biological target: GSK3b (Homo sapiens (Human), UniProt P49841); test: GSK3b kinase selectivity assay
Sequence of GSK3b (P49841 whole entry, species assumed): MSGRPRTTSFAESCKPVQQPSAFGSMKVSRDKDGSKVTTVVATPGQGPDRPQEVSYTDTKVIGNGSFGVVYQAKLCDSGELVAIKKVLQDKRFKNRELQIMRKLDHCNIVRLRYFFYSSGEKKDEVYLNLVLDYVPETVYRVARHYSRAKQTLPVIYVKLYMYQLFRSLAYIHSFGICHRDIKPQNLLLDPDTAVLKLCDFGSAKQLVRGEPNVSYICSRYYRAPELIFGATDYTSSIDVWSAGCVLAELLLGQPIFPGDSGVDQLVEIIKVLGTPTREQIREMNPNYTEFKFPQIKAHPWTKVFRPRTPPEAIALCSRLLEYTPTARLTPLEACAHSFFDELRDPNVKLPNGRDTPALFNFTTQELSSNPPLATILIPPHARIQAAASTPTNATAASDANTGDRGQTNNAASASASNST
Method: GSK3b (5-20 mU diluted in 20 mM MOPS pH 7.5, 1 mM EDTA, 0.01% Brij35, 5% glycerol, 0.1% b-mercaptoethanol, 1 mg/ml BSA) is assayed against Phospho-GS2 peptide ([…](PO4)EDEEE) in a final volume of 25.5 μl containing 8 mM MOPS pH 7.0, 0.2 mM EDTA, 20 μM Phospho GS2 peptide, 10 mM magnesium acetate and 0.005 mM [33P-g-ATP] (50-1000 cpm/pmole) and incubated for 30 min at room temperature. Assays are stopped by addition of 5 μl of 0.5 M (3%) orthophosphoric acid and then harvested onto P81 Unifilter plates with a wash buffer of 50 mM orthophosphoric acid.

[7] = biological target: p38aMAPK (Homo sapiens (Human), UniProt Q16539); test: p38aMAPK kinase selectivity assay
Sequence of p38aMAPK (Q16539 whole entry): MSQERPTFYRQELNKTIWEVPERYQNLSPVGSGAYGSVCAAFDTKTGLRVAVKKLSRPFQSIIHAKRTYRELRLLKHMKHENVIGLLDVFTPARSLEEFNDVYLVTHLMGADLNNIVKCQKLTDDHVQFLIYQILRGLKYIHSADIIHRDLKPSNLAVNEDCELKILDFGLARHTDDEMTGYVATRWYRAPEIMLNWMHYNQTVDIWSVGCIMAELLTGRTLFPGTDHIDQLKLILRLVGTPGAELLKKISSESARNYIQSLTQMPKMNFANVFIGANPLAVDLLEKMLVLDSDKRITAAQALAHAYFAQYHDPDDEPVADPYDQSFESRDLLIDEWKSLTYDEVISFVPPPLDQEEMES
Method: SAPK 2a/p38 (5-20 mU diluted in 50 mM Tris pH 7.5, 0.1 mM EGTA, 0.1 mM Na3VO4, 0.1% b-mercaptoethanol, 1 mg/ml BSA) is assayed against MBP in a final volume of 25.5 μl containing 25 mM Tris pH 7.5, 0.1 mM EGTA, 0.33 mg/ml MBP, 10 mM magnesium acetate and 0.05 mM [33P-g-ATP] (50-1000 cpm/pmole) and incubated for 30 min at room temperature. Assays are stopped by addition of 5 μl of 0.5 M (3%) orthophosphoric acid and then harvested onto P81 Unifilter plates with a wash buffer of 50 mM orthophosphoric acid.

[8] = biological target: PKD1 (Homo sapiens (Human), UniProt Q15139); test: PKD1 kinase selectivity assay
Sequence of PKD1 (Q15139 whole entry): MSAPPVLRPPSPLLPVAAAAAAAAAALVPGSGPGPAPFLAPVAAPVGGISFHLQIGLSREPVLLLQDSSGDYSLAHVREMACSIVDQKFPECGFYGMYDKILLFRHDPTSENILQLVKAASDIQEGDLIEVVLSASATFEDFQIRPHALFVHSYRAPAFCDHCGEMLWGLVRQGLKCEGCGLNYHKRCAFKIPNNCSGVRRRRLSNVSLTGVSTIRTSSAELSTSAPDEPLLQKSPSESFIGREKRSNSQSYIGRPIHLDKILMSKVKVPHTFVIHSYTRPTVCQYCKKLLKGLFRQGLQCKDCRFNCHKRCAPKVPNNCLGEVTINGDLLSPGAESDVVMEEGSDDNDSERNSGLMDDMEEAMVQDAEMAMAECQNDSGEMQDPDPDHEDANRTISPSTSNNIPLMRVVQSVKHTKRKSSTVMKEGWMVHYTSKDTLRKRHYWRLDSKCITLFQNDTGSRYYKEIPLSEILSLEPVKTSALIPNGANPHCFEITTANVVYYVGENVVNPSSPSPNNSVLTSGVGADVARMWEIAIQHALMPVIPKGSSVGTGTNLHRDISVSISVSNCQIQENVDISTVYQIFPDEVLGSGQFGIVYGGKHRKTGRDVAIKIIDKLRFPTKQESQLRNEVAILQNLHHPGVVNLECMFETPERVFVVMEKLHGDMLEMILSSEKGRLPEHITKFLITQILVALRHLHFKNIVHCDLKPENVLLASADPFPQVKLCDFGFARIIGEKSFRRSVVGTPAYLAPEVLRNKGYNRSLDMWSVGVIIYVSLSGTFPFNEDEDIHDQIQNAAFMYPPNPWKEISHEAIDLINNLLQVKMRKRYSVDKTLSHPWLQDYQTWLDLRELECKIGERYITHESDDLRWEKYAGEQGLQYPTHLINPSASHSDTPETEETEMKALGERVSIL
Method: as §1, with “PKD1” for “IGF-1R”, “EGTA, 0.1% b-mercaptoethanol,” for “EGTA,”, “assayed” for “assayed against a”, “0.05% b-mercaptoethanol, 30 μM” for “300 µM”, “0.05” for “0.005”

Sequence of S6K1 (P23443 whole entry, species assumed): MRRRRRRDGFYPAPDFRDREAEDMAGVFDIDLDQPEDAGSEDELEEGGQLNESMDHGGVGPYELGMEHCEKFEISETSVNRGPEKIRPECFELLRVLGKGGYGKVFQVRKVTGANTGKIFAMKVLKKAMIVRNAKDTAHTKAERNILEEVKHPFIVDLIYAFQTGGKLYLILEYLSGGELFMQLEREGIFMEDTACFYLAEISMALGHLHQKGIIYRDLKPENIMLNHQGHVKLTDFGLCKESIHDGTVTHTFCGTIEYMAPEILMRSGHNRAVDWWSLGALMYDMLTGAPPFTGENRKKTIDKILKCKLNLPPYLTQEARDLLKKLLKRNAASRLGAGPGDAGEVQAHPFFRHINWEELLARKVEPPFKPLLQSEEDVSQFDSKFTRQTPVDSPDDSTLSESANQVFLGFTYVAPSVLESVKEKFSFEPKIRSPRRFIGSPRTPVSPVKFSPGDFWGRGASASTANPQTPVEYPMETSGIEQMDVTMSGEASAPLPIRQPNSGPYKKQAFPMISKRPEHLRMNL

c1cc2[nH]nc3c2c(n1)N(C1CCOCC1)CCC3 [Example 29, 6-(tetrahydro-2H-pyran-4-yl)-6,7,8,9-tetrahydro-2H-1,2,5,6-tetraazabenzo[cd]azulene]
percentage inhibition of S6K1 [1]: 2 percentage | percentage inhibition of IGF-1R [2]: 9 percentage | percentage inhibition of Lck [3]: 0 percentage | percentage inhibition of CK1δ [4]: 11 percentage | percentage inhibition of TBK1 [5]: 0 percentage | percentage inhibition of GSK3b [6]: 0 percentage | percentage inhibition of p38aMAPK [7]: 0 percentage | percentage inhibition of PKD1 [8]: 3 percentage

c1cc2[nH]nc3c2c(n1)N(C1CCC1)CCC3 [Example 22, 6-cyclobutyl-6,7,8,9-tetrahydro-2H-1,2,5,6-tetraazabenzo[cd]azulene]
percentage inhibition of S6K1 [1]: 0 percentage | percentage inhibition of IGF-1R [2]: 9 percentage | percentage inhibition of Lck [3]: 0 percentage | percentage inhibition of CK1δ [4]: 0 percentage | percentage inhibition of TBK1 [5]: 0 percentage | percentage inhibition of GSK3b [6]: 16 percentage | percentage inhibition of p38aMAPK [7]: 4 percentage | percentage inhibition of PKD1 [8]: 20 percentage

CC(C)n1ncc2c1CN(C1CCN(C)CC1)c1nccc3[nH]nc-2c13 [Example 68]
percentage inhibition of S6K1 [1]: 0 percentage | percentage inhibition of IGF-1R [2]: 0 percentage | percentage inhibition of Lck [3]: 0 percentage | percentage inhibition of CK1δ [4]: 3 percentage | percentage inhibition of TBK1 [5]: 5 percentage | percentage inhibition of GSK3b [6]: 0 percentage | percentage inhibition of p38aMAPK [7]: 0 percentage | percentage inhibition of PKD1 [8]: 46 percentage

c1cc2[nH]nc3c2c(n1)N(C1CCCC1)CCC3 [Example 23, 6-cyclopentyl-6,7,8,9-tetrahydro-2H-1,2,5,6-tetraazabenzo[cd]azulene]
percentage inhibition of S6K1 [1]: 0 percentage | percentage inhibition of IGF-1R [2]: 2 percentage | percentage inhibition of CK1δ [4]: 0 percentage | percentage inhibition of TBK1 [5]: 0 percentage | percentage inhibition of GSK3b [6]: 0 percentage | percentage inhibition of p38aMAPK [7]: 0 percentage | percentage inhibition of PKD1 [8]: 9 percentage

CN1CCC(N2Cc3ccccc3-c3n[nH]c4ccnc2c34)CC1 [Example 55]
percentage inhibition of S6K1 [1]: 17 percentage | percentage inhibition of IGF-1R [2]: 8 percentage | percentage inhibition of Lck [3]: 6 percentage | percentage inhibition of CK1δ [4]: 12 percentage | percentage inhibition of TBK1 [5]: 5 percentage | percentage inhibition of GSK3b [6]: 0 percentage | percentage inhibition of p38aMAPK [7]: 6 percentage | percentage inhibition of PKD1 [8]: 73 percentage
